Results from PubChem BioAssay (NCI).
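Compound exposure: 48 hours, 5 concentrations, 96-well plates. GI50 marks 50% less growth. TGI marks complete inhibition of growth.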

Columns and labels:
Experiment in all cases: inhibition of tumour cell growth, NCI panel, 48 h
SNB-19 CNS = tested on: SNB-19 CNS
A498 renal = tested on: A498 renal
MDA-MB-231 breast = tested on: MDA-MB-231 breast
NCI/ADR-RES ovarian = tested on: NCI/ADR-RES ovarian
U251 CNS = tested on: U251 CNS
KM12 colon = tested on: KM12 colon
ACHN renal = tested on: ACHN renal
T-47D breast = tested on: T-47D breast
EKVX NSCLC = tested on: EKVX NSCLC
OVCAR-3 ovarian = tested on: OVCAR-3 ovarian
SK-MEL-28 melanoma = tested on: SK-MEL-28 melanoma
BT-549 breast = tested on: BT-549 breast
HS 578T breast = tested on: HS 578T breast
TK-10 renal = tested on: TK-10 renal
HOP-62 NSCLC = tested on: HOP-62 NSCLC
HOP-92 NSCLC = tested on: HOP-92 NSCLC
DU-145 prostate = tested on: DU-145 prostate
PC-3 prostate = tested on: PC-3 prostate
CAKI-1 renal = tested on: CAKI-1 renal
OVCAR-5 ovarian = tested on: OVCAR-5 ovarian
NCI-H522 lung = tested on: NCI-H522 lung
OVCAR-8 ovarian = tested on: OVCAR-8 ovarian
LOX IMVI melanoma = tested on: LOX IMVI melanoma
SK-OV-3 ovarian = tested on: SK-OV-3 ovarian
SF-539 CNS = tested on: SF-539 CNS
HL-60(TB) leukemia = tested on: HL-60(TB) leukemia
A549 NSCLC = tested on: A549 NSCLC
SF-268 CNS = tested on: SF-268 CNS

**Q.** With O=C(N/N=C/c1ccc(Cl)cc1Cl)c1ccccc1Nc1cccc(C(F)(F)F)c1 as the molecule, how does the GI50 (SNB-19 CNS) read?
**A.** 2.5 µM

**Q.** What about the TGI (SNB-19 CNS) of the same molecule?
**A.** 6.93 µM

**Q.** And the GI50 (A498 renal)?
**A.** 14.9 µM

**Q.** What about the TGI (A498 renal) of the same molecule?
**A.** 52.4 µM

**Q.** And the GI50 (MDA-MB-231 breast)?
**A.** 4.79 µM

**Q.** And the TGI (MDA-MB-231 breast)?
**A.** 32.2 µM

**Q.** What about the GI50 (NCI/ADR-RES ovarian) of the same molecule?
**A.** 5.97 µM

**Q.** And the TGI (NCI/ADR-RES ovarian)?
**A.** 36.7 µM

**Q.** What about the GI50 (U251 CNS) of the same molecule?
**A.** 3.07 µM

**Q.** And the TGI (U251 CNS)?
**A.** 9.64 µM

**Q.** What about the GI50 (KM12 colon) of the same molecule?
**A.** 9.07 µM

**Q.** What about the TGI (KM12 colon) of the same molecule?
**A.** > 100 µM

**Q.** And the GI50 (ACHN renal)?
**A.** 3.77 µM

**Q.** What about the TGI (ACHN renal) of the same molecule?
**A.** 16.5 µM

**Q.** And the GI50 (T-47D breast)?
**A.** 2.2 µM

**Q.** And the TGI (T-47D breast)?
**A.** 6.9 µM

**Q.** And the GI50 (EKVX NSCLC)?
**A.** 12.2 µM

**Q.** And the TGI (EKVX NSCLC)?
**A.** 80.1 µM

**Q.** What about the GI50 (OVCAR-3 ovarian) of the same molecule?
**A.** 2.85 µM

**Q.** What about the TGI (OVCAR-3 ovarian) of the same molecule?
**A.** 8.03 µM

**Q.** What about the GI50 (SK-MEL-28 melanoma) of the same molecule?
**A.** 28.8 µM

**Q.** And the TGI (SK-MEL-28 melanoma)?
**A.** > 100 µM

**Q.** And the GI50 (BT-549 breast)?
**A.** 3.84 µM

**Q.** And the TGI (BT-549 breast)?
**A.** 32.5 µM

**Q.** And the GI50 (HS 578T breast)?
**A.** 4.1 µM

**Q.** What about the TGI (HS 578T breast) of the same molecule?
**A.** 44.5 µM

**Q.** And the GI50 (TK-10 renal)?
**A.** 2.84 µM

**Q.** And the TGI (TK-10 renal)?
**A.** 9.22 µM

**Q.** And the GI50 (HOP-62 NSCLC)?
**A.** 5.36 µM

**Q.** What about the TGI (HOP-62 NSCLC) of the same molecule?
**A.** 18.3 µM

**Q.** What about the GI50 (HOP-92 NSCLC) of the same molecule?
**A.** 1.5 µM

**Q.** And the TGI (HOP-92 NSCLC)?
**A.** 3.57 µM

**Q.** And the GI50 (DU-145 prostate)?
**A.** 4.08 µM

**Q.** And the TGI (DU-145 prostate)?
**A.** 38.7 µM

**Q.** And the GI50 (PC-3 prostate)?
**A.** 2.4 µM

**Q.** What about the TGI (PC-3 prostate) of the same molecule?
**A.** 8.82 µM

**Q.** And the GI50 (CAKI-1 renal)?
**A.** 3.45 µM

**Q.** What about the TGI (CAKI-1 renal) of the same molecule?
**A.** 14.4 µM

**Q.** And the GI50 (OVCAR-5 ovarian)?
**A.** 24.3 µM

**Q.** What about the TGI (OVCAR-5 ovarian) of the same molecule?
**A.** > 100 µM

**Q.** What about the GI50 (NCI-H522 lung) of the same molecule?
**A.** 3.34 µM

**Q.** What about the TGI (NCI-H522 lung) of the same molecule?
**A.** 20.7 µM

**Q.** What about the GI50 (OVCAR-8 ovarian) of the same molecule?
**A.** 2.47 µM

**Q.** What about the TGI (OVCAR-8 ovarian) of the same molecule?
**A.** 5.99 µM

**Q.** What about the GI50 (LOX IMVI melanoma) of the same molecule?
**A.** 7.26 µM

**Q.** And the TGI (LOX IMVI melanoma)?
**A.** 63.7 µM

**Q.** And the GI50 (SK-OV-3 ovarian)?
**A.** 12.5 µM

**Q.** And the TGI (SK-OV-3 ovarian)?
**A.** 39.2 µM

**Q.** And the GI50 (SF-539 CNS)?
**A.** 3.36 µM

**Q.** And the TGI (SF-539 CNS)?
**A.** 12.8 µM

**Q.** What about the GI50 (HL-60(TB) leukemia) of the same molecule?
**A.** 79 µM

**Q.** And the TGI (HL-60(TB) leukemia)?
**A.** > 100 µM

**Q.** And the GI50 (A549 NSCLC)?
**A.** 2.31 µM

**Q.** What about the TGI (A549 NSCLC) of the same molecule?
**A.** 6.18 µM

**Q.** And the GI50 (SF-268 CNS)?
**A.** 3.38 µM

**Q.** What about the TGI (SF-268 CNS) of the same molecule?
**A.** 13.3 µM
